For series [1], the target named is T1, DNA (cytosine-5)-methyltransferase 1 (Homo sapiens, UniProt P26358). In words: Inhibition of DNMT1 (unknown origin) at 1 uM preincubated for 15 mins followed by substrate and [3H-SAM] addition and measured after 60 mins by microbeta analysis relative to control. Particulars: time 75.0 min.
The next series deals with MV4-11. The experiment in a line: Antiproliferative activity against human MV4-11 cells assessed as inhibition of cell viability measured after 72 hrs by MTT assay. The format is functional, cell-based. As to conditions: MV4-11, 72 h.
Series [2] deals with T1, DNA (cytosine-5)-methyltransferase 1. The experiment in a line: Inhibition of DNMT1 (unknown origin) at 5 uM preincubated for 15 mins followed by substrate and [3H-SAM] addition and measured after 60 mins by microbeta analysis relative to control. Particulars: time 75.0 min.
The target of series [3] is T2, DNA (cytosine-5)-methyltransferase 3A (Homo sapiens, UniProt Q9Y6K1). In words: Inhibition of DNMT3A (unknown origin) at 5 uM preincubated for 15 mins followed by substrate and [3H-SAM] addition and measured after 60 mins by microbeta analysis relative to control. Particulars: time 75.0 min.
T2 sequence (Q9Y6K1 whole entry, looked up): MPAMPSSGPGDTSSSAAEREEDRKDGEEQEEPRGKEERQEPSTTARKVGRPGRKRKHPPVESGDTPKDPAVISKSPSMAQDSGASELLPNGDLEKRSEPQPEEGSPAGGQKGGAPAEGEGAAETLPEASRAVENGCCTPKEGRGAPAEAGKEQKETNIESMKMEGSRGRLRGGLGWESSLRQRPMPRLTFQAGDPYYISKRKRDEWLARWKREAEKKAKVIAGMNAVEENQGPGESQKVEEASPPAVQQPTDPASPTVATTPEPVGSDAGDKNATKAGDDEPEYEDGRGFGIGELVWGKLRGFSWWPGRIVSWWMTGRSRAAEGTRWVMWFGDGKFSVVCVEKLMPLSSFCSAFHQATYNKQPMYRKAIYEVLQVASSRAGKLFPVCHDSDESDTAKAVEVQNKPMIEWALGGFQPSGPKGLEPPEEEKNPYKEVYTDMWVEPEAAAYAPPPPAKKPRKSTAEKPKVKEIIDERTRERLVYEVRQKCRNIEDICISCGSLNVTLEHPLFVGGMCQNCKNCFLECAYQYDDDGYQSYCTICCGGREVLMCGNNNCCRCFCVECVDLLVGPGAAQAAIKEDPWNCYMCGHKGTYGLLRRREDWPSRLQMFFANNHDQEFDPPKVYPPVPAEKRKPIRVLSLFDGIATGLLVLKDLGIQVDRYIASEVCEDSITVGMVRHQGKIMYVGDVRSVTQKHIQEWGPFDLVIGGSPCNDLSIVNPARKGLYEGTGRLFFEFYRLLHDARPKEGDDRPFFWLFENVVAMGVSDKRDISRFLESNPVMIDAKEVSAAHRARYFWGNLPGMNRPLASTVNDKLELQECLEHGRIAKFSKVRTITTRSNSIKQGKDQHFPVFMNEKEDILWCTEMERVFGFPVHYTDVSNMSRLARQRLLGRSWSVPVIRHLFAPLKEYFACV
The target in series [4] is T3, DNA (cytosine-5)-methyltransferase 3B (Homo sapiens, UniProt Q9UBC3). The experiment in a line: Inhibition of DNMT3B (unknown origin) at 5 uM preincubated for 15 mins followed by substrate and [3H-SAM] addition and measured after 60 mins by microbeta analysis relative to control. Particulars: time 75.0 min.
Series [5] has as its target T4, Histone-lysine N-methyltransferase EHMT2 (Homo sapiens) (UniProt Q96KQ7).
T4 sequence (whole entry): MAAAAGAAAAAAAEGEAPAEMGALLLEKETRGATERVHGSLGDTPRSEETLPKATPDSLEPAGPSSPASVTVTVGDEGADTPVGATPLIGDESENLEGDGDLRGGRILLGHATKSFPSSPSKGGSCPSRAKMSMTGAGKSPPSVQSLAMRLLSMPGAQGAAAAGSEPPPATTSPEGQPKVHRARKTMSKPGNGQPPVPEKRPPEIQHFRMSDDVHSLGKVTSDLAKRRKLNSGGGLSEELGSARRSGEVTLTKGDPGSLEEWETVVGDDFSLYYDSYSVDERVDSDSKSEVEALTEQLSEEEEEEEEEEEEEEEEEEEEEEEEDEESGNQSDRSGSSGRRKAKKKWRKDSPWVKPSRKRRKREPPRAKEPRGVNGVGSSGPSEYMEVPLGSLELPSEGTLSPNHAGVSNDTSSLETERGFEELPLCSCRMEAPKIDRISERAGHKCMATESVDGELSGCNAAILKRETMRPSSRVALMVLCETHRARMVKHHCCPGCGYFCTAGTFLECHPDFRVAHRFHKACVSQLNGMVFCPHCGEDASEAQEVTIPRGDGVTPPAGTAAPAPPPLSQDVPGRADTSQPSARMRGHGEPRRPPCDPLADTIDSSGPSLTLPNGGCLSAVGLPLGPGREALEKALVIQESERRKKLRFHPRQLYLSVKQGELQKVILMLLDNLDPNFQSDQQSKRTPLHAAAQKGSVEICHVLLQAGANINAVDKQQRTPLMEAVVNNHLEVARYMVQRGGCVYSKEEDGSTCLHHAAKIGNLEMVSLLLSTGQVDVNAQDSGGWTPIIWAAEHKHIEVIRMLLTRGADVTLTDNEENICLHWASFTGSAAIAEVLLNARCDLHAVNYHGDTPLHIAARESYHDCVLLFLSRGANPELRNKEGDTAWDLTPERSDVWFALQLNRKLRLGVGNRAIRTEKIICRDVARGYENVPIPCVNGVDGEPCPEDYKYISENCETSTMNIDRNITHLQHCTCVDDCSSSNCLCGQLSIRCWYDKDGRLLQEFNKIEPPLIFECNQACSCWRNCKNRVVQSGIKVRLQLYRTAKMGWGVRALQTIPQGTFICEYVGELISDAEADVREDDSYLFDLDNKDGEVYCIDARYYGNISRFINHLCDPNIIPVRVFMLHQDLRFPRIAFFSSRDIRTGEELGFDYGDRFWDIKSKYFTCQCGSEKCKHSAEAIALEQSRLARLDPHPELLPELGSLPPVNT
In words: Inhibition of G9a (unknown origin) at 5 uM preincubated for 15 mins followed by substrate and [3H-SAM] addition and measured after 60 mins by microbeta analysis relative to control. Particulars: time 75.0 min.

The test system of the next series is U-937. In words: Antiproliferative activity against human U-937 cells assessed as inhibition of cell viability measured after 72 hrs by MTT assay. In kind it is functional, cell-based. Particulars: U-937, 72 h.
For series [6], the target named is T2, DNA (cytosine-5)-methyltransferase 3A. The experiment in a line: Inhibition of DNMT3A (unknown origin) preincubated for 15 mins followed by substrate and [3H-SAM] addition and measured after 60 mins by microbeta analysis.
The target of series [7] is T3, DNA (cytosine-5)-methyltransferase 3B. In words: Inhibition of DNMT3B (unknown origin) preincubated for 15 mins followed by substrate and [3H-SAM] addition and measured after 60 mins by microbeta analysis.
Series [8] deals with T1, DNA (cytosine-5)-methyltransferase 1. The experiment in a line: Inhibition of DNMT1 (unknown origin) preincubated for 15 mins followed by substrate and [3H-SAM] addition and measured after 60 mins by microbeta analysis.
Series [9] concerns the target T5, Histone-lysine N-methyltransferase EHMT2 (Homo sapiens, UniProt Q96KQ7).
T5 sequence (Q96KQ7 whole entry): T4 sequence (whole entry)
In words: Inhibition of G9a (unknown origin) preincubated for 15 mins followed by substrate and [3H-SAM] addition and measured after 60 mins by microbeta analysis.

Series [10] in a line: Cmax in Sprague-Dawley rat at 10 mg/kg, po measured upto 24 hrs by LC/MS/MS analysis. As to conditions: in vivo. The format is ADME, organism-based.
Series [11] can be described thus: Volume of distribution at steady state in Sprague-Dawley rat at 10 mg/kg, po measured upto 24 hrs by LC/MS/MS analysis. Particulars: in vivo. The format is ADME, organism-based.
A short description of series [12]: Terminal elimination half life in Sprague-Dawley rat at 10 mg/kg, po measured upto 24 hrs by LC/MS/MS analysis. The format is ADME, organism-based. As to conditions: in vivo, read-out: beta t1/2 (converted).
Series [13] is described as follows: Apparent clearance during terminal phase in Sprague-Dawley rat at 10 mg/kg, po measured upto 24 hrs by LC/MS/MS analysis. In kind it is ADME, organism-based. Particulars: in vivo, read-out: CLz/F (converted).
Series [14] is described as follows: AUC (0 to t) in Sprague-Dawley rat at 10 mg/kg, po measured upto 24 hrs by LC/MS/MS analysis. The format is ADME, organism-based. Particulars: Sprague-Dawley, in vivo.
Series [15] can be described thus: Oral bioavailability in Sprague-Dawley rat at 10 mg/kg measured upto 24 hrs by LC/MS/MS analysis. In kind it is ADME, organism-based. As to conditions: Sprague-Dawley, in vivo.
Series [16] is described as follows: Cmax in Sprague-Dawley rat at 10 mg/kg, iv measured upto 24 hrs by LC/MS/MS analysis. In kind it is ADME, organism-based. As to conditions: in vivo.
Series [17] is described as follows: Volume of distribution at steady state in Sprague-Dawley rat at 10 mg/kg, iv measured upto 24 hrs by LC/MS/MS analysis. The format is ADME, organism-based. As to conditions: in vivo, read-out: Vdss.
Series [18] is described as follows: Terminal elimination half life in Sprague-Dawley rat at 10 mg/kg, iv measured upto 24 hrs by LC/MS/MS analysis. Particulars: in vivo, read-out: beta t1/2 (converted). In kind it is ADME, organism-based.
Series [19] can be described thus: Clearance in Sprague-Dawley rat at 10 mg/kg, iv measured upto 24 hrs by LC/MS/MS analysis. The format is ADME, organism-based. As to conditions: in vivo.
Series [20] can be described thus: AUC (0 to t) in Sprague-Dawley rat at 10 mg/kg, iv measured upto 24 hrs by LC/MS/MS analysis. In kind it is ADME, organism-based. Particulars: Sprague-Dawley, in vivo.

Results on 14 compounds are retold here after ChEMBL document CHEMBL6153174, “Design and Synthesis of Novel Deazapurine DNMT 1 Inhibitors with In Vivo Efficacy in DLBCL” (J Med Chem, 2025).

Where only a bound is given, the exact number is not on record here.

T1 sequence (P26358 whole entry): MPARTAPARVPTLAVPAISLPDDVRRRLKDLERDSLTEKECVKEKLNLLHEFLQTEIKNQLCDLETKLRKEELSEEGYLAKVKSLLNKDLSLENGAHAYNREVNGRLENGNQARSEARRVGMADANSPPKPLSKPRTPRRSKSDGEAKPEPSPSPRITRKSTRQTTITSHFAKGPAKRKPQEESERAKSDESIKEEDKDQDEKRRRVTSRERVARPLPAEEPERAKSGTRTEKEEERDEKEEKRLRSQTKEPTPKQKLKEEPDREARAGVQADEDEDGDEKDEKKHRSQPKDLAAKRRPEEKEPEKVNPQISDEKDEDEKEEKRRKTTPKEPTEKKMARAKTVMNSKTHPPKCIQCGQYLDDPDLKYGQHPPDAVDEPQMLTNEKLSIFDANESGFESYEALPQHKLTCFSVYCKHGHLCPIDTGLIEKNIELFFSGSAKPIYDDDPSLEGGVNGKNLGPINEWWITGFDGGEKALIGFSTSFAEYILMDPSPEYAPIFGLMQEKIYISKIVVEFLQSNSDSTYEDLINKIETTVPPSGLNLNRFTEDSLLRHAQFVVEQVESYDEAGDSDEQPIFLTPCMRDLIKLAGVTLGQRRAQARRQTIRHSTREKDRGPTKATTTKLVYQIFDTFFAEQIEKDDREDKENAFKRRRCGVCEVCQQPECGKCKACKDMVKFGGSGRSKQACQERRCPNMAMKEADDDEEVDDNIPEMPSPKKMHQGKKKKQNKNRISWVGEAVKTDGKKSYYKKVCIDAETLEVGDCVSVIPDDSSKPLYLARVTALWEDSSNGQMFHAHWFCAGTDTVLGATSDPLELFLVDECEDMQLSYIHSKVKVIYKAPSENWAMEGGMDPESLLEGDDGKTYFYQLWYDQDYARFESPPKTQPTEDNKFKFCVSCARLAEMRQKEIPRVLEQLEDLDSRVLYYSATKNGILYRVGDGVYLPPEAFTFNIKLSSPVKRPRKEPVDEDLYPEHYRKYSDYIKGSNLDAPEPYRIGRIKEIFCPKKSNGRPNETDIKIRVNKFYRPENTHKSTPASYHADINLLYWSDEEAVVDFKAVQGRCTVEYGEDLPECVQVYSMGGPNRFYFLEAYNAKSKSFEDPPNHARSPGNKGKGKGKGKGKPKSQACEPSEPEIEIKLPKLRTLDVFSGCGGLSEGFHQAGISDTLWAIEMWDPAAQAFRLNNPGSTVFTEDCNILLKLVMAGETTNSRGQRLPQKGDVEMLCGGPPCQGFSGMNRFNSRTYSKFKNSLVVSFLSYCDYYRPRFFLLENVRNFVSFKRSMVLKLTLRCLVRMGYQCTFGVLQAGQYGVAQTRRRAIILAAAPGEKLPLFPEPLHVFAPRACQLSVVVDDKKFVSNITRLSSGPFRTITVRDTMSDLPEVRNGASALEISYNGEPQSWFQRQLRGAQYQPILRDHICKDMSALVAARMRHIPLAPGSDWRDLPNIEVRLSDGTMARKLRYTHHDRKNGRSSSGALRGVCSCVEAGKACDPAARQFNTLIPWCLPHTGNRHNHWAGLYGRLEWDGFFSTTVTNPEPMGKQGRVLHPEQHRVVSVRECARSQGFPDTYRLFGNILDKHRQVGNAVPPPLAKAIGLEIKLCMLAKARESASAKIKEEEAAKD

Regarding `CN1CCN(c2cc(NCC3CCN(C(=O)C4CCC4)CC3)c3cnn(CCCN4CCOCC4)c3c2)CC1`, the inhibition in [1] was found to be 9.3%. For the same compound, in the series on MV4-11, the IC50 was 34.5 µM.
As for `Cc1ccc(-c2nc(NC3CCN(C)CC3)c3ccn(CCCN4CCCC4)c3n2)o1`, the inhibition in series [2] was 43%; in series [3], 16.5%; in series [4], -2.5%; in [5] it was 7.2%. For the same compound, the IC50 in the series with MV4-11 worked out at 11.8 µM; with U-937, 43.6 µM; in [6], 7.95 µM; in series [7] it was 14.6 µM.
For `CN1CCN(c2cc(NCC3CCN(C(=O)C(C)(C)C)CC3)c3cnn(CCCN4CCOCC4)c3c2)CC1`, the inhibition in series [1] came to 41%. In addition, the IC50 in the series with MV4-11 was 24.4 µM.
`COc1ccc(-c2nc(NC3CCN(C)CC3)c3ccn(CCCN4CCCC4)c3n2)cn1`: the IC50 in series [8] is 1.9 µM; in the series with MV4-11, 10.2 µM; in the series on U-937 it was 4.53 µM; in [6], 18.3 µM; in [7], greater than 20 µM; in series [9], greater than 20 µM. In addition, the inhibition in series [2] was found to be 49%; in [3], 15%; in [4], 1.2%; in [5], 1%.
Turning to `Cc1ccc(-c2cc(NCC3CCN(C(=O)OCc4ccccc4)CC3)c3cnn(CCCN4CCCC4)c3c2)o1`, the IC50 was greater than 30 µM in series [8], 1.07 µM in the series on MV4-11 and 6.95 µM with U-937. In addition, the inhibition is 0.36% in series [2], 12% in series [3], 53% in series [4] and 9.7% in series [5].
As for `CN1CCC(Nc2nc(-c3ccc(F)nc3)nc3c2ccn3CCCN2CCCC2)CC1`, the values for the inhibition in [2], in [3] and in series [5] were 72%, 6.8% and 4.2%, respectively. Moreover, the IC50 with MV4-11 was 3.87 µM; with U-937 it was 2.61 µM; in [6], 3.13 µM; in [7], greater than 20 µM. Moreover, the Cmax in series [10] is 17.3 ng/mL; in series [16] it was 436 ng/mL. The Vdss in series [11] is 303.6 L/kg. The half-life in series [12] is 3.5 h; in series [18], 7.8 h. In series [13], the CL/F was 1050 mL/min/kg. Moreover, the AUC(0-t) at 24 h was determined as 116 ng·h/mL in series [14] and 2080 ng·h/mL in series [20]. In series [15], this compound yielded a bioavailability of 6.5%. Further, the Vd in series [17] turned out to be 33.8 L/kg. The same compound had a clearance in series [19] of 45 mL/min/kg.
In the case of `CN1CCC(Nc2nc(-c3ccc(F)cc3)nc3c2ccn3CCCN2CCCC2)CC1`, the inhibition is 63% in series [2], 13% in series [3], -6.6% in series [4] and 0.3% in series [5]. Moreover, the IC50 with MV4-11 came to 1.66 µM; in the series with U-937 it was 2.45 µM; in series [6], 4 µM; in [7], 18.3 µM.
As for `CC(C)N1CCC(Nc2nc(-c3ccccc3)nc3c2ncn3CCCN2CCCC2)CC1`, the figures for the IC50 (in [8]; in the series with MV4-11; with U-937) were 11.9 µM, 8.85 µM and 12.4 µM, respectively. Moreover, the inhibition in series [2] came out at 7.2%; in series [3], 21%; in series [4], 0.7%; in series [5], 6%.
Consider `CN1CCN(c2cc(NCC3CCN(C(=O)NC(C)(C)C)CC3)c3cnn(CCCN4CCOCC4)c3c2)CC1`, for which the inhibition in series [1] was found to be 0.91%. Besides, in the series with MV4-11, the IC50 turned out to be 19.4 µM.
Consider `Cc1ccc(-c2nc(NC3CCN(C(C)C)CC3)c3ncn(CCCN4CCCC4)c3n2)o1`, for which the figures for the IC50 (in [8]; in the series on MV4-11; in the series on U-937) were 23.8 µM, 46.1 µM and 55.2 µM, respectively. The inhibition in [2] amounted to 37%; in series [3], 22%; in series [4] it was 2%; in [5] it was 2.5%.
For `CN1CCC(Nc2nc(-c3ccc(N)nc3)nc3c2ccn3CCCN2CCCC2)CC1`, the IC50 in [8] is 1.62 µM; with MV4-11, 18.3 µM; with U-937 it was 26.8 µM; in [6], 16.7 µM; in series [7], greater than 20 µM; in series [9], greater than 20 µM. In addition, the inhibition in series [2] is 52%; in series [3] it was 17%; in [4], 0.6%; in series [5] it was -1.1%.
On to `CC(C)N1CCC(Nc2nc(-c3cn[nH]c3)nc3c2ncn3CCCN2CCCC2)CC1`, for which the IC50 in series [8] is 55.4 µM; in the series with MV4-11 it was greater than 100 µM; in the series on U-937, greater than 100 µM. The inhibition in series [2] was 49%; in series [3], 8.6%; in series [4], -5.5%; in series [5], -2.4%.
Turning to `CN1CCC(Nc2nc(-c3ccncc3)nc3c2ccn3CCCN2CCCC2)CC1`, the IC50 is 3.94 µM in [8]; 7.7 µM in the series with MV4-11; 10.1 µM with U-937; greater than 20 µM in [6]; greater than 20 µM in series [7]; greater than 20 µM in series [9]. Moreover, the inhibition is 69% in [2], 8.5% in series [3], 3.5% in [4] and 1.3% in [5].
Turning to `CC(C)N1CCC(Nc2nc(-c3ccc(F)cc3)nc3c2ncn3CCCN2CCCC2)CC1`, the IC50 in series [8] amounted to 17.4 µM; with MV4-11, 10.4 µM; with U-937, 12.8 µM. Besides, the inhibition was 3.3% in series [2], 14% in series [3], 11% in series [4] and -4.9% in series [5].
